Biological target: T1, NgArgX (Natrinema gari, UniProt L9YZH8)
T1 construct: gene C486_12678; ArgX with His tag (C-terminal in complementation plasmids), expressed in and partially purified from the J7-2 delta-argWX strain; carrier ArgW with N-terminal His tag purified from E. coli BL21(DE3); with Alpha-aminoadipate/glutamate carrier protein LysW/ArgW
T1 sequence (L9YZH8 1-291): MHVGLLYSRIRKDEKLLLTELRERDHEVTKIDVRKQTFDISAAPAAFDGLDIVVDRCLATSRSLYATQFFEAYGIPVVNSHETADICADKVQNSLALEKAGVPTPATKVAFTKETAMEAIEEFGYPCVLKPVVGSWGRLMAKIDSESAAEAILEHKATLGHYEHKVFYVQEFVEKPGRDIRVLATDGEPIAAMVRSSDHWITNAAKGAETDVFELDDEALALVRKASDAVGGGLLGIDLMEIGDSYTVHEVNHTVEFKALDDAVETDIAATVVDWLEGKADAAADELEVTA
Test: LC-MS/MS of trypsin-digested NgArgW-glutamate product
Type: biochemical
Details: 10 mM glutamate, 20 mM ATP, 1 mM MgCl2, 0.1 mM ZnSO4, 3 M KCl, 100 mM HEPES pH 7.5, 45 °C, 12 h; glutamate ligated to Glu54 of NgArgW; enzyme partially purified

SMILES: N[C@@H](CCC(=O)O)C(=O)O [glutamate]
- LC-MS/MS of trypsin-digested NgArgW-glutamate product: both NgArgX and NgArgXa specifically act on glutamate rather than AAA

Reference: publication PMC10433800, “Dissecting the Arginine and Lysine Biosynthetic Pathways and Their Relationship in Haloarchaeon Natrinema gari J7-2 via Endogenous CRISPR-Cas System-Based Genome Editing” (Microbiology Spectrum, 2023)
